According to ChEMBL document CHEMBL3885861, “Open TG-GATES”:

Organism: Rattus norvegicus
Assay: Open TG-GATES - Regimen: Single
Assay type: toxicity, organism-based, Sprague-Dawley
Parameters: regimen Single, gender Male, age 6 weeks
Details: in vivo, po, 0 mg/kg, route gavage, dose level Control; for APTT / Bas / Eos / Fbg / Hb / Ht / Lym / MCH / MCHC / MCV / Mono / Neu / PT / Plat / RBC / Ret / WBC: tissue Blood; for KIDNEY_L / KIDNEY_R / KIDNEY_TOTAL: tissue Kidney; for LIVER: tissue Liver; for A/G / ALP / ALT / AST / BUN / CRE / Ca / Cl / DBIL / GLC / IP / K / LDH / Na / PL / RALB / TBIL / TC / TG / TP / gamma-GTP: tissue Plasma

With `C[C@](N)(Cc1ccc(O)c(O)c1)C(=O)O` [METHYLDOPA] the TERMINAL_BW (3 h) was 189.8 g, the APTT (3 h) was 16.9 s and the Bas (3 h) was 0%. The Eos (3 h) was 0.8%, the Fbg (3 h) was 253.4 mg/dL and the Hb (3 h) was 13.1 g/dL. It also gave a Ht (3 h) of 39.1%, a Lym (3 h) of 75% and an MCH (3 h) of 22.2 pg. It also gave an MCHC (3 h) of 33.4%, an MCV (3 h) of 66.5 fL and a Mono (3 h) of 3.2%. The Neu (3 h) was 20.4%, the PT (3 h) was 12.3 s and the Plat (3 h) was 118.6 x10_4/uL. The RBC (3 h) was 588.6 x10_4/ul, the Ret (3 h) was 11% and the WBC (3 h) was 80.9 x10_2/uL. The KIDNEY_L (3 h) was 0.8 g, the KIDNEY_R (3 h) was 0.8 g and the KIDNEY_TOTAL (3 h) was 1.6 g. For the same compound, the LIVER (3 h) was 8 g, the A/G (3 h) was 0.9 and the ALP (3 h) was 1671.4 IU/L. It also gave an ALT (3 h) of 54.6 IU/L, an AST (3 h) of 84.8 IU/L and a BUN (3 h) of 10 mg/dL. The CRE (3 h) was 0.2 mg/dL, the Ca (3 h) was 11.6 mg/dL and the Cl (3 h) was 106.8 meq/L. For the same compound, the DBIL (3 h) was 0.022 mg/dL, the GLC (3 h) was 164.4 mg/dL and the IP (3 h) was 9.4 mg/dL. The K (3 h) was 4.6 meq/L, the LDH (3 h) was 61.2 IU/L and the Na (3 h) was 141.8 meq/L. It also gave a PL (3 h) of 147.2 mg/dL, an RALB (3 h) of 2.6 g/dL and a TBIL (3 h) of 0.08 mg/dL. The TC (3 h) was 88 mg/dL, the TG (3 h) was 68.4 mg/dL and the TP (3 h) was 5.6 g/dL. For the same compound, the gamma-GTP (3 h) was 1.2 IU/L, the TERMINAL_BW (6 h) was 187.9 g and the APTT (6 h) was 17 s. It also gave a Bas (6 h) of 0%, an Eos (6 h) of 1% and a Fbg (6 h) of 266.8 mg/dL. The Hb (6 h) was 13.4 g/dL, the Ht (6 h) was 40.1% and the Lym (6 h) was 70.4%. It also gave an MCH (6 h) of 21.6 pg, an MCHC (6 h) of 33.5% and an MCV (6 h) of 64.5 fL. The Mono (6 h) was 3.8%, the Neu (6 h) was 24.4% and the PT (6 h) was 12.4 s. The Plat (6 h) was 120.7 x10_4/uL, the RBC (6 h) was 622.2 x10_4/ul and the Ret (6 h) was 9.7%. The WBC (6 h) was 82.2 x10_2/uL, the KIDNEY_L (6 h) was 0.8 g and the KIDNEY_R (6 h) was 0.8 g. It also gave a KIDNEY_TOTAL (6 h) of 1.6 g, an LIVER (6 h) of 7.3 g and an A/G (6 h) of 0.9. For the same compound, the ALP (6 h) was 1652.4 IU/L, the ALT (6 h) was 45.8 IU/L and the AST (6 h) was 74 IU/L. It also gave a BUN (6 h) of 8.4 mg/dL, a CRE (6 h) of 0.2 mg/dL and a Ca (6 h) of 11.2 mg/dL. It also gave a Cl (6 h) of 109 meq/L, a DBIL (6 h) of 0.014 mg/dL and a GLC (6 h) of 177.6 mg/dL. The IP (6 h) was 10.6 mg/dL, the K (6 h) was 4.6 meq/L and the LDH (6 h) was 54.2 IU/L. For the same compound, the Na (6 h) was 143.4 meq/L, the PL (6 h) was 128.4 mg/dL and the RALB (6 h) was 2.6 g/dL. For the same compound, the TBIL (6 h) was 0.076 mg/dL, the TC (6 h) was 81.2 mg/dL and the TG (6 h) was 43 mg/dL. The TP (6 h) was 5.6 g/dL, the gamma-GTP (6 h) was 1.2 IU/L and the TERMINAL_BW (9 h) was 189.5 g. For the same compound, the APTT (9 h) was 17.4 s, the Bas (9 h) was 0% and the Eos (9 h) was 1%. For the same compound, the Fbg (9 h) was 242 mg/dL, the Hb (9 h) was 12.7 g/dL and the Ht (9 h) was 37.7%. The Lym (9 h) was 75.4%, the MCH (9 h) was 21.7 pg and the MCHC (9 h) was 33.7%. It also gave an MCV (9 h) of 64.2 fL, a Mono (9 h) of 2.4% and a Neu (9 h) of 20.8%. The PT (9 h) was 13.6 s, the Plat (9 h) was 112.1 x10_4/uL and the RBC (9 h) was 588.8 x10_4/ul. It also gave a Ret (9 h) of 10.4%, a WBC (9 h) of 74.2 x10_2/uL and a KIDNEY_L (9 h) of 0.8 g. The KIDNEY_R (9 h) was 0.8 g, the KIDNEY_TOTAL (9 h) was 1.7 g and the LIVER (9 h) was 6.9 g. The A/G (9 h) was 0.9, the ALP (9 h) was 1737.2 IU/L and the ALT (9 h) was 44.4 IU/L. For the same compound, the AST (9 h) was 77.2 IU/L, the BUN (9 h) was 10.2 mg/dL and the CRE (9 h) was 0.1 mg/dL. For the same compound, the Ca (9 h) was 10.9 mg/dL, the Cl (9 h) was 108.2 meq/L and the DBIL (9 h) was 0.014 mg/dL. For the same compound, the GLC (9 h) was 182.6 mg/dL, the IP (9 h) was 11 mg/dL and the K (9 h) was 4.4 meq/L. It also gave an LDH (9 h) of 88 IU/L, a Na (9 h) of 143.2 meq/L and a PL (9 h) of 114.8 mg/dL. For the same compound, the RALB (9 h) was 2.4 g/dL, the TBIL (9 h) was 0.076 mg/dL and the TC (9 h) was 74.4 mg/dL. For the same compound, the TG (9 h) was 30.6 mg/dL, the TP (9 h) was 5.1 g/dL and the gamma-GTP (9 h) was 1.2 IU/L. It also gave a TERMINAL_BW (24 h) of 194.8 g, an APTT (24 h) of 17 s and a Bas (24 h) of 0%. The Eos (24 h) was 1%, the Fbg (24 h) was 237.6 mg/dL and the Hb (24 h) was 13 g/dL. For the same compound, the Ht (24 h) was 38.2%, the Lym (24 h) was 75.8% and the MCH (24 h) was 22 pg. The MCHC (24 h) was 34.1%, the MCV (24 h) was 64.4 fL and the Mono (24 h) was 3.4%. For the same compound, the Neu (24 h) was 19.4%, the PT (24 h) was 12.8 s and the Plat (24 h) was 113.1 x10_4/uL. It also gave an RBC (24 h) of 594.4 x10_4/ul, a Ret (24 h) of 9.5% and a WBC (24 h) of 77.2 x10_2/uL. The KIDNEY_L (24 h) was 0.9 g, the KIDNEY_R (24 h) was 0.9 g and the KIDNEY_TOTAL (24 h) was 1.8 g. For the same compound, the LIVER (24 h) was 8.8 g, the A/G (24 h) was 0.9 and the ALP (24 h) was 1858.4 IU/L. For the same compound, the ALT (24 h) was 55.2 IU/L, the AST (24 h) was 83 IU/L and the BUN (24 h) was 13 mg/dL. For the same compound, the CRE (24 h) was 0.2 mg/dL, the Ca (24 h) was 11 mg/dL and the Cl (24 h) was 107.2 meq/L. It also gave a DBIL (24 h) of 0.008 mg/dL, a GLC (24 h) of 183.6 mg/dL and an IP (24 h) of 7.8 mg/dL. The K (24 h) was 4.3 meq/L, the LDH (24 h) was 69.8 IU/L and the Na (24 h) was 142 meq/L. For the same compound, the PL (24 h) was 128.6 mg/dL, the RALB (24 h) was 2.5 g/dL and the TBIL (24 h) was 0.062 mg/dL. For the same compound, the TC (24 h) was 72.6 mg/dL, the TG (24 h) was 58.2 mg/dL and the TP (24 h) was 5.3 g/dL. For the same compound, the gamma-GTP (24 h) was 1 IU/L.
